Test results reported in article PMC4999912, “Anti-Dengue Virus Constituents from Formosan Zoanthid Palythoa mutuki” (Marine Drugs, 2016).
Values after ≈ are worked out from the molar mass of the structure shown.

Experiments:
[1] = test system: DENV-1; test: Anti-DENV activity assay, DENV RNA level by qRT-PCR in infected Huh-7 cells; type: cell-based; settings: Dengue virus, DENV1, MOI 0.2, 72 h
Protocol: (§1) Huh-7 cells were cultured in Dulbecco’s modified Eagle’s medium (DMEM) containing 10% fetal bovine serum, 1% non-essential amino acids, and 1% antibiotic-antimycotic in a 5% CO2 at 37 °C. Huh-7 cells were seeded at 24-well plate at density 5 × 10^4 cells/well and infected by DENV infection at a multiplicity of infection (MOI) of 0.2 followed by test compounds treatment 2 h post infection. Total cellular RNA were harvested at 72 h post-infection, and DENV RNA level was analyzed using quantitative real-time reverse-transcription polymerase chain reaction (qRT-PCR) with specific primers against DENV NS5 gene. DENV RNA level was normalized by cellular glyceraldehydes-3-phosphate dehydrogenase (gapdh) mRNA level. 2′-C-methylcytidine (2′CMC) served as positive control. DENV of different serotypes (DENV-1: DN8700828; DENV-2: DN454009A; DENV-3: DN8700829A; DENV-4: S9201818) were obtained from the Centers for Disease Control, Department of Health, Taipei, Taiwan.

[2] = test system: DENV-4; test: as above; type: cell-based; settings: Dengue virus, DENV4, MOI 0.2, 72 h
Protocol: as §1

[3] = test system: DENV-3; test: as above; type: cell-based; settings: Dengue virus, DENV3, MOI 0.2, 72 h
Protocol: as §1

[4] = test system: DENV-2; test: as above; type: cell-based, dengue virus 2; settings: for EC50: DENV2, Huh-7 cells, MOI 0.2, treatment 2 h post infection, RNA at 72 h, read-out: EC50, half maximal effective concentration, anti-DENV-2 activity
Protocol: as §1

[5] = Cytotoxicity assay (MTS); type: cell-based; settings: human, Huh-7 cells, read-out: CC50, half maximal cytotoxicity concentration
Protocol: Huh-7 cells were seeded onto 96-well plate at a density of 5 × 10^3 cells per well, followed by compound treatment for 72 h. The cell viability was determined using a standard MTS assay (CellTiter 96® Aqueous One Solution Cell Proliferation assay system, Promega, Madison, WI, USA) according to the manufacturer’s instructions.

[6] = test system: DENV; type: cell-based, dengue virus; settings: 10 μM, TCID50 assay
[7] = target: DENV NS2B/NS3 protease (Dengue virus type 2, UniProt P29990); test: cell-based
Text: The DENV RdRp activity reporter system was used to determine the anti-DENV RdRp activity as described before. The NS3 protease reporter-based assay was used to determine the anti-DENV protease activity. The Huh-7 cells were transfected with DENV NS2B/NS3 protease reporter vector pEG(∆4B/5)NLuc carrying a specific DENV protease cleavage peptide sequences and the DENV protease expression vector. […] The supernatant was collected to analyze the nano luciferase (NLuc) activity by Nano-Glo® Luciferase Assay System following the manufacturer’s instructions (Promega, Madison, WI, USA).

[8] = test system: DENV; parameters: method as in PMID 22201648; settings: cited from earlier work

Chain of DENV NS2B/NS3 protease (P29990 1476-2093): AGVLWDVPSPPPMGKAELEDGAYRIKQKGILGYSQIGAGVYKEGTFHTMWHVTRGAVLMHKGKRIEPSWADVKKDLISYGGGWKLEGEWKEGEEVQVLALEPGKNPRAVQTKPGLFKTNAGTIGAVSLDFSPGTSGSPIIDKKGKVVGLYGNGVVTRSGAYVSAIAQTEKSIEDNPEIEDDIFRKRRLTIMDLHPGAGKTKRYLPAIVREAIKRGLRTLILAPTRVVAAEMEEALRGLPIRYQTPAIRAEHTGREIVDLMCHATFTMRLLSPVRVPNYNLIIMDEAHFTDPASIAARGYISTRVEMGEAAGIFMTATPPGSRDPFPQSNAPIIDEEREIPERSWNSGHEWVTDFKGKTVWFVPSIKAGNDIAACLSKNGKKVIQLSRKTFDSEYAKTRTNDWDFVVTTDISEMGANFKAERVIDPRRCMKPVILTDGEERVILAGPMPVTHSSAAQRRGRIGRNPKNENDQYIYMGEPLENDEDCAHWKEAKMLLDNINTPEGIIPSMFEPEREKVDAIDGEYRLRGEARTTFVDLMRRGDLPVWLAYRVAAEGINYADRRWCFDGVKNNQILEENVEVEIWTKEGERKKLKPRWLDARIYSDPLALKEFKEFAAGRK
Chain of DENV NS2B/NS3 protease (P29990 1346-1475): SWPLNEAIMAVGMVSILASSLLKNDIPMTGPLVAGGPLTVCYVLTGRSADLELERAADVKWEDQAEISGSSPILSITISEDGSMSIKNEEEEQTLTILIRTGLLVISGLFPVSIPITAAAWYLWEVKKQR

| Structure (SMILES) | EC50 ([4]; Dengue virus) [µM] | CC50 at 72 h [5] [µM] | also measured |
| --- | --- | --- | --- |
| CC(=O)OC1CC(C)(C)C(=C=CC(C)=CC=CC=CC=C(C)C=C2C=C(C=CC34OC3(C)CC(O)CC4(C)C)C(=O)O2)C(C)(O)C1 (centres unmarked) [Compound 9, peridinin] | 4.5 ± 0.46 | 133 ± 3.21 | EC50 [1]: 7.62 ± 0.17 µM; EC50 [2]: 6.51 ± 0.3 µM; EC50 [3]: 5.84 ± 0.19 µM; IC50 ([4]; Dengue virus, DENV2, Huh-7, read-out: IC50, antiviral activity (abstract)): 4.5 ± 0.46 µg/mL (≈ 7.13 µM); decrease of the viral titer as compared to mock-treatment [6]: 2 ± 0.6 log10; EC50 [7]: 8.5 ± 0.41 µM |
| O=c1c(O)c(-c2ccc(O)c(O)c2)oc2cc(O)cc(O)c12 [quercetin] | – | – | IC50, anti-DENV activity [8]: 35.7 µg/mL (≈ 118 µM) |
| C[C@@H](C[C@@H](O)[C@](C)(O)[C@H]1CC[C@@]2(O)C3=CC(=O)[C@@H]4C[C@@H](O)[C@@H](O)C[C@]4(C)[C@H]3CC[C@]12C)C(C)(C)O [Compound 4, 24-epi-makisterone A] | 46.5 ± 0.59 | – | anti-DENV-2 activity in words [4]: weak anti-DENV-2 activities |
| CC(C)(O)CC[C@@H](O)[C@](C)(O)[C@H]1CC[C@@]2(O)C3=CC(=O)[C@@H]4CC[C@@H](O)C[C@]4(C)[C@H]3CC[C@]12C [Compound 3, 3-deoxy-20-hydroxyecdysone] | > 100 | > 200 | – |
| CC(=O)O[C@H]1C[C@@]2(C)[C@@H](C[C@H]1O)C(=O)C=C1[C@@H]2CC[C@]2(C)[C@@H]([C@@](C)(O)[C@H](O)CCC(C)(C)O)CC[C@@]12O [Compound 2, 20-hydroxyecdysone 2-acetate] | > 100 | > 200 | – |
| C[C@@]1(O)[C@H](O)[C@@H](CO)O[C@H]1n1ccc(N)nc1=O [2′CMC, 2′-C-methylcytidine, reference compound] | 13.23 ± 0.07 | 94.8 ± 4.15 | SI, selectivity index, CC50/EC50 ([4]; CC50 (Huh-7) / EC50 (DENV-2)): >7.2 |
| CC(C)(O)CCC(O)C(C)(O)C1CCC2(O)C3=CC(=O)C4C(O)CCCC4(C)C3CCC12C (centres unmarked) [Compound 1, palythone A] | 54 ± 2.17 | – | anti-DENV-2 activity in words [4]: weak anti-DENV-2 activities |
